Reference: patent US20250072422A1, “ARYLCYCLOHEXANEDIONE DERIVATIVE OR SALT THEREOF, PEST CONTROL AGENT CONTAINING SAID COMPOUND, AND METHOD FOR USING SAME” (ADEKA Corporation, priority 2021, published 2025)

Tested on: Frankliniella occidentalis
Assay: Insecticidal test against Frankliniella occidentalis
Conditions: 500 ppm drug solution sprayed on hatched larvae on Phaseolus vulgaris leaf pieces, four days after treatment
Source text: Female adults of Frankliniella occidentalis were inoculated onto Phaseolus vulgaris leaf pieces, and after allowing them to lay eggs for one day, the female adults were removed. […] Four days after the treatment, the number of surviving larvae of this species was examined. […] In duplicate.

| SMILES | corrected mortality, rating of assessment |
| --- | --- |
| CC1C(=O)C(C(=O)Nc2ccc(C(F)(F)F)cc2)=C(O)CC1c1ccc(C(F)(F)F)cc1 (stereo not drawn) [1-2] | D or higher |
| CC1(C)C(=O)C(C(=O)Nc2ccc(F)c(F)c2)=C(O)CC1c1ccc(C(F)(F)F)cc1 (stereo not drawn) [1-10] | D or higher |

Tested on: Laodelphax striatellus
Assay: Insecticidal test against Laodelphax striatellus
Conditions: 500 ppm drug solution, rice seedlings immersed 30 seconds, three-instar insects, eight days after inoculation

| SMILES | corrected mortality, rating of assessment |
| --- | --- |
| O=C(Nc1ccc(F)cc1)C1=C(O)CC(c2ccc(C(F)(F)F)cc2)C2(CCCC2)C1=O (stereo not drawn) [1-28] | D or higher |

Tested on: Dirofilaria immitis
Assay: Influence evaluation test on the growth of Dirofilaria immitis
Format: cell-based
Conditions: 168 h, read-out: development inhibition rate from the L3 stage larva to the L4-stage larva

| SMILES | inhibition at 10 µM |
| --- | --- |
| C#CCC1C(=O)C(C(=O)Nc2ccc(F)cc2)=C(O)CC1c1ccc(C(F)(F)F)cc1 (stereo not drawn) [1-7, N-(4-fluorophenyl)-5-hydroxy-3-oxo-2-(prop-2-yn-1-yl)-4′-(trifluoromethyl)-1,2,3,6-tetrahydro-[1,1′-biphenyl]-4-carboxamide] | ≥ 50% |

Tested on: Plutella xylostella
Assay: Insecticidal test against Plutella xylostella
Conditions: 500 ppm drug solution, Chinese cabbage seedlings with eggs immersed about 30 sec, six days after immersion, 25° C.
Source text: Six days after the immersion in the drug solution, the number of surviving insects was examined. […] In triplicate using 10 per plot.

| SMILES | corrected mortality, rating of assessment |
| --- | --- |
| Cl.O=C(Nc1ccc(F)cc1)C1=C(O)CC(c2ccc(C(F)(F)F)cc2)C2(CCNCC2)C1=O (stereo not drawn) [1-136] | D or higher |
| O=C1CC2c3ccc(C(F)(F)F)cc3CCC2C(O)=C1C(=O)Nc1ccc(F)cc1 (stereo not drawn) [2-2] | D or higher |
| O=C(Nc1ccc(Oc2ccccc2)cc1)C1=C(O)CC(c2ccc(C(F)(F)F)cc2)C2(CCCCC2)C1=O (stereo not drawn) [1-38] | D or higher |
| C#CCC1C(=O)C(C(=O)Nc2ccc(F)cc2)=C(O)CC1c1ccc(C(F)(F)F)cc1 (stereo not drawn) [1-7, N-(4-fluorophenyl)-5-hydroxy-3-oxo-2-(prop-2-yn-1-yl)-4′-(trifluoromethyl)-1,2,3,6-tetrahydro-[1,1′-biphenyl]-4-carboxamide] | D or higher |
| C#CCC1C(=O)C(C(=S)Nc2ccc(F)cc2)=C(O)CC1c1ccc(C(F)(F)F)cc1 (stereo not drawn) [1-18] | D or higher |
| CC1(C)C(=O)C(C(=S)Nc2ccc(OC(F)(F)F)cc2)=C(O)CC1c1ccc(C(F)(F)F)cc1 (stereo not drawn) [1-22] | D or higher |
| O=C(Nc1ccc([N+](=O)[O-])cc1)C1=C(O)CC(c2ccc(C(F)(F)F)cc2)C2(CCCCC2)C1=O (stereo not drawn) [1-118] | D or higher |
| CC1(C)C(=O)C(C(=O)Nc2ccc(F)nc2)=C(O)CC1c1ccc(Br)cn1 (stereo not drawn) [1-143] | D or higher |
| O=C1C(C(=S)Nc2ccc(F)cc2)=C(O)CC(c2ccc(C(F)(F)F)cc2)C12CCCC2 (stereo not drawn) [1-48] | D or higher |
| CC1C(=O)C(C(=O)Nc2ccc(F)cc2)=C(O)CC1(C)c1ccc(C(F)(F)F)cc1 (stereo not drawn) [1-3] | D or higher |
| CC1(C)C(=O)C(C(=S)Nc2ccc(F)cc2)=C(O)CC1c1ccc(C(F)(F)F)cc1 (stereo not drawn) [1-20] | D or higher |
| O=C(Nc1ccc(F)cc1)C1=C(O)CC(c2ccc(C(F)(F)F)cc2)C2(CCOCC2)C1=O (stereo not drawn) [1-45] | D or higher |
| O=C1CC2c3cc(C(F)(F)F)ccc3CC2C(O)=C1C(=O)Nc1ccc(F)cc1 (stereo not drawn) [2-1] | D or higher |
| CC1(C)C(=O)C(C(=O)Nc2ccc(F)cn2)=C(O)CC1c1ccc(Br)cn1 (stereo not drawn) [1-142] | D or higher |
| O=C(Nc1ccccc1-c1ccccc1)C1=C(O)CC(c2ccc(C(F)(F)F)cc2)C2(CCCCC2)C1=O (stereo not drawn) [1-119] | D or higher |
| O=C(Nc1ccc(OC(F)(F)F)cc1)C1=C(O)CC(c2ccc(C(F)(F)F)cc2)C2(CCCCC2)C1=O (stereo not drawn) [1-122] | D or higher |
| O=C(Nc1ccc(F)cc1)C1=C(O)CC(c2ccc(C(F)(F)F)cc2)C2(CCCC2)C1=O (stereo not drawn) [1-28] | D or higher |
| CC1C(=O)C(C(=S)Nc2ccc(F)cc2)=C(O)C2CCc3cc(C(F)(F)F)ccc3C12 (stereo not drawn) [2-9] | D or higher |
| CC1C(=O)C(C(=O)Nc2ccc(F)cc2)=C(O)C2CCc3cc(C(F)(F)F)ccc3C12 (stereo not drawn) [2-4] | D or higher |
| O=C(Nc1ccc(SC(F)(F)F)cc1)C1=C(O)CC(c2ccc(C(F)(F)F)cc2)C2(CCCCC2)C1=O (stereo not drawn) [1-120] | D or higher |
